Measured values as given in US12286443B2, “Bycyclic JAK inhibitors and uses thereof” (Insilico Medicine IP Limited, priority 2019, dated 2025).

These compounds were tested against T1, JAK3 (Homo sapiens, UniProt P52333) (assay: Inhibition of JAK3 kinase, LANCE Ultra TR-FRET assay). Settings: 2x ATP 8 μM, 15 min pre-incubation, 90 min reaction, 23° C.
T1 construct: purchased Invitrogen PV4080
T1 sequence (P52333 1-1124): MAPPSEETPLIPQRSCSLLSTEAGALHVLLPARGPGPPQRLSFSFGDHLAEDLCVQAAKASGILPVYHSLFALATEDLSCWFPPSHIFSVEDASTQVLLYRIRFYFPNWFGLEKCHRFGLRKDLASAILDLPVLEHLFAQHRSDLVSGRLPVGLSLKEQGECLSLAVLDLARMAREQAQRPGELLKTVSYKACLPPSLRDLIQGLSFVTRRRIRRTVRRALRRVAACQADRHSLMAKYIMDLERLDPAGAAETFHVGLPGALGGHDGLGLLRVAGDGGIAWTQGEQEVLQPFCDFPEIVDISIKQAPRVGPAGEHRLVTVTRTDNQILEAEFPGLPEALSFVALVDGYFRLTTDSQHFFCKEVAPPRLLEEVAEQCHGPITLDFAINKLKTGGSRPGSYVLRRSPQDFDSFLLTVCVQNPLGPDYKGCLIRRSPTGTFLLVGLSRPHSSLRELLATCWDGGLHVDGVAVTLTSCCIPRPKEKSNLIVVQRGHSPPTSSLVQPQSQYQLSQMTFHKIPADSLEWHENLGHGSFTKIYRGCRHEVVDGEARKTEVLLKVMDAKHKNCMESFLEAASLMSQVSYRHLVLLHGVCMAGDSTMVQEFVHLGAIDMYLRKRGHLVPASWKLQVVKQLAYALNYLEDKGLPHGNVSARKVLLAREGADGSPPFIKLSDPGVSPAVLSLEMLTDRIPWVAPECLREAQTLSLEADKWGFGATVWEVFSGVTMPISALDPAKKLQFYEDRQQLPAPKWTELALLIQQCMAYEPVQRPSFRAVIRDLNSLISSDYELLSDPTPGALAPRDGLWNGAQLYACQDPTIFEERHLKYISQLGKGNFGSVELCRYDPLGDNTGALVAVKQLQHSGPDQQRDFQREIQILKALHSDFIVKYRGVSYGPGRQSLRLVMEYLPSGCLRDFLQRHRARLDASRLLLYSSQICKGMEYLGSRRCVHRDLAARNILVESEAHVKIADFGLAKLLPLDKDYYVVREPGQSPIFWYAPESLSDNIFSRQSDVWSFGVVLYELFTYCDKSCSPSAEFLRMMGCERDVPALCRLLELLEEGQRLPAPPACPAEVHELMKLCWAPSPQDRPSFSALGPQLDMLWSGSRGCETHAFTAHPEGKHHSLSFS
Assay type: biochemical
Procedure: (§1) Exemplary compounds were assayed to determine potency in inhibiting activity of JAK1-3 and TYK2 kinases by determining IC50 values.
(§2) The sources of test materials and equipment are as follows: JAK1 (Invitrogen, Cat. No PV4775), JAK2 (Invitrogen, Cat. No PV4210), JAK3 (Invitrogen, Cat. No PV4080), TYK2 (Invitrogen, Cat. No PR8440C), ATP (Sigma, Cat. No. A7699-1G), DMSO (Sigma, Cat. No. D2650), DTT (Sigma, Cat. No. 43815), 384 wells_compound plate (Greiner, Cat. No. 781280), 384 wells_assay plate (Perkin Elmer, Cat. No. 6007299), LANCE Ultra ULight™-JAK-1 peptide (Perkin Elmer, Cat. No. TRF0121), LANCET™ Eu-W1024 Anti-phosphotyrosine (PT66) (Perkin Elmer, Cat. No. AD0069), LANCET™ Detection Buffer(Perkin Elmer, Cat. No. CR97-100).
(§3) The concentrations of test compounds varied from 100 μM to 1.7 nM with 3-fold dilution, 11 points, in duplicates while the concentrations of the reference compound, Tofacitinib, varied from 1 μM to 0.017 nM with 3-fold dilution, 11 points, in duplicates.
(§4) The assay buffer contained 50 mM HEPES (pH 7.5), 0.01% Brij-35, 10 mM MgCl2, 1 mM EDTA, 2 mM DTT. Incubations were carried out at 23° C.
(§5) Prior to the assay, enzyme, peptide substrate and serially diluted test compounds were pre-incubated together in assay buffer (5 μL) for 15 minutes (peptide substrate concentration: 50 nM; JAK enzyme concentrations: 2 nM JAK1; […]; […] and 4 nM TYK2). And the assay was initiated by the addition of 5 μL assay buffer containing 2× final ATP concentration (these are the 2×ATP concentrations: 76 μM JAK1; 24 μM JAK2; 8 μM JAK3 and 30 μM TYK2). Following the 90-minute incubation, antibody conjugated with Eu is dissolved in detection buffer to add into wells and then incubated for 60 minutes. The 10 μL detection buffer contains EDTA to stop the enzymatic reaction. The plate is analyzed by Perkin Elmer Envision on TR-FRET mode. The high ratio of 665/615 represents no inhibition of kinase reaction while the low ratio of 665/615 represents complete inhibition of kinase reaction.
(§6) Curves are fit by XLFIT5 as inhibition rate % vs. log [compound concentration] using 4 parameters logistic model 205.
(§7) In the table, “A” indicates an IC50 of less than 100 nM, “B” indicates an IC50 range from 100 nM to 500 nM; “C” indicates an IC50 range from 500 nM to 2 μM; and “D” indicates an IC50 greater than 2 μM. Also, “na” indicates data is not available.

First: CCCS(=O)(=O)NC(=O)[C@H]1C[C@H](NC(=O)c2nn(C)c3c2CN(c2ncnc4[nH]ccc24)CC3)C1 [Compound 127]
Second: Cn1nc(C(=O)N[C@H]2C[C@H](CC#N)C2)c2c1CCN(c1ncnc3[nH]ccc13)C2 [Compound 128]
The IC50 of the first is lower: 100 to 500 nM for the first, 500 to 2000 nM for the second.

Compared with `Cn1cc(C(=O)NCCC(F)(F)F)c2c1CCN(c1ncnc3[nH]ccc13)C2` [Compound 130], `O=C(NCCC(F)(F)F)n1ccc2c1CN(c1ncnc3[nH]ccc13)CC2` [Compound 132] is higher in IC50: < 100 nM for the first, 500 to 2000 nM for the second.

First: FC(F)(F)CCNCc1n[nH]c2c1CN(c1ncnc3[nH]ccc13)CC2 [Compound 131]
Second: O=C(NCCS(=O)(=O)N1CCC1)c1noc2c1CN(c1ncnc3[nH]ccc13)CC2 [Compound 134]
The IC50 of the first is lower: < 100 nM for the first, 100 to 500 nM for the second. The first is the more potent here.

`O=C(NCCS(=O)(=O)N1CCCC1)c1noc2c1CN(c1ncnc3[nH]ccc13)CC2` [Compound 135] and `O=C(NCCS(=O)(=O)N1CCCCC1)c1noc2c1CN(c1ncnc3[nH]ccc13)CC2` [Compound 136] fall in the same range of IC50: 100 to 500 nM for the first, 100 to 500 nM for the second.

These compounds were tested against T2, JAK1 (Homo sapiens, UniProt P23458) (assay: Inhibition of JAK1 kinase, LANCE Ultra TR-FRET assay). Settings: 2 nM JAK1, 2x ATP 76 μM, 15 min pre-incubation, 90 min reaction, 23° C.
T2 construct: purchased Invitrogen PV4775
Assay type: biochemical
Procedure: as §1, §2, §3, §4, §5, §6, §7

T2 sequence (P23458 whole entry): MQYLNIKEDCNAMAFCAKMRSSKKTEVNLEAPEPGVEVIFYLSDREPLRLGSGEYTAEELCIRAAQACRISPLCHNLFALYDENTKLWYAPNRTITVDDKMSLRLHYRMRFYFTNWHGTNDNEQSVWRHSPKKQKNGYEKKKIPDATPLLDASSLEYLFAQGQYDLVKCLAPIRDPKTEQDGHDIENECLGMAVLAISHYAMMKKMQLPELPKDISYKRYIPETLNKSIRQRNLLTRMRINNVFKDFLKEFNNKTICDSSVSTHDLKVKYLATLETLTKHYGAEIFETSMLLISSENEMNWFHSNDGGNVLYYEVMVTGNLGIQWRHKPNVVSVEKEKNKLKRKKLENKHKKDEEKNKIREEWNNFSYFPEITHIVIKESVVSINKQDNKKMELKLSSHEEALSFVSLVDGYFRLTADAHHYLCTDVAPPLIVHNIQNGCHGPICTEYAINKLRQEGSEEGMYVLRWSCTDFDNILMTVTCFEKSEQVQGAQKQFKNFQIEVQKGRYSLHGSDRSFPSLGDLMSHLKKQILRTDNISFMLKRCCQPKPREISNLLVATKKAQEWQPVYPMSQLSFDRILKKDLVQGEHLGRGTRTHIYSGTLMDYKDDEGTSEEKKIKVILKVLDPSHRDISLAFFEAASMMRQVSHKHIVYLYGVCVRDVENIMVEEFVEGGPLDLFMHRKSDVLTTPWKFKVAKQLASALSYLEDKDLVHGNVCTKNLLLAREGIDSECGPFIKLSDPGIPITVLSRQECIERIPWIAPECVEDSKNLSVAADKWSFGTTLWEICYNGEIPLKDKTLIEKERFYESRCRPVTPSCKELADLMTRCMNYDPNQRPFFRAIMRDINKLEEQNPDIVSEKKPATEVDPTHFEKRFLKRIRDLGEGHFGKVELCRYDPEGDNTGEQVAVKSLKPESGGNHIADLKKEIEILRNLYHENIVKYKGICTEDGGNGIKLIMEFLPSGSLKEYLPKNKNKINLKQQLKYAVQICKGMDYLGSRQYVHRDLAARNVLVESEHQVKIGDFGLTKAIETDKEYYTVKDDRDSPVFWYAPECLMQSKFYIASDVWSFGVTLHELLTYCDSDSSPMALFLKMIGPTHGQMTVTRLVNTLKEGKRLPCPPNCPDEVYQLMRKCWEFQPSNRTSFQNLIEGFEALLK

First: CCCS(=O)(=O)NC(=O)[C@H]1C[C@H](NC(=O)c2nn(C)c3c2CN(c2ncnc4[nH]ccc24)CC3)C1 [Compound 127]
Second: Cn1nc(C(=O)N[C@H]2C[C@H](CC#N)C2)c2c1CCN(c1ncnc3[nH]ccc13)C2 [Compound 128]
The IC50 of the first is lower: 100 to 500 nM for the first, 500 to 2000 nM for the second.

Compared with `Cn1cc(C(=O)NCCC(F)(F)F)c2c1CCN(c1ncnc3[nH]ccc13)C2` [Compound 130], `O=C(NCCC(F)(F)F)n1ccc2c1CN(c1ncnc3[nH]ccc13)CC2` [Compound 132] is higher in IC50: < 100 nM for the first, 100 to 500 nM for the second.

First: FC(F)(F)CCNCc1n[nH]c2c1CN(c1ncnc3[nH]ccc13)CC2 [Compound 131]
Second: O=C(NCCS(=O)(=O)N1CCC1)c1noc2c1CN(c1ncnc3[nH]ccc13)CC2 [Compound 134]
The IC50 of the first is lower: 100 to 500 nM for the first, 500 to 2000 nM for the second.

First: O=C(NCCS(=O)(=O)N1CCCC1)c1noc2c1CN(c1ncnc3[nH]ccc13)CC2 [Compound 135]
Second: O=C(NCCS(=O)(=O)N1CCCCC1)c1noc2c1CN(c1ncnc3[nH]ccc13)CC2 [Compound 136]
The IC50 of the first is lower: 100 to 500 nM for the first, 500 to 2000 nM for the second. The first is the more potent here.

What follows are compounds tested against T3, JAK2 (Homo sapiens, UniProt O60674) (assay: Inhibition of JAK2 kinase, LANCE Ultra TR-FRET assay). Settings: 2x ATP 24 μM, 15 min pre-incubation, 90 min reaction, 23° C.
T3 construct: purchased Invitrogen PV4210
Assay type: biochemical
Procedure: as §1, §2, §3, §4, §5, §6, §7

T3 sequence (O60674 whole entry): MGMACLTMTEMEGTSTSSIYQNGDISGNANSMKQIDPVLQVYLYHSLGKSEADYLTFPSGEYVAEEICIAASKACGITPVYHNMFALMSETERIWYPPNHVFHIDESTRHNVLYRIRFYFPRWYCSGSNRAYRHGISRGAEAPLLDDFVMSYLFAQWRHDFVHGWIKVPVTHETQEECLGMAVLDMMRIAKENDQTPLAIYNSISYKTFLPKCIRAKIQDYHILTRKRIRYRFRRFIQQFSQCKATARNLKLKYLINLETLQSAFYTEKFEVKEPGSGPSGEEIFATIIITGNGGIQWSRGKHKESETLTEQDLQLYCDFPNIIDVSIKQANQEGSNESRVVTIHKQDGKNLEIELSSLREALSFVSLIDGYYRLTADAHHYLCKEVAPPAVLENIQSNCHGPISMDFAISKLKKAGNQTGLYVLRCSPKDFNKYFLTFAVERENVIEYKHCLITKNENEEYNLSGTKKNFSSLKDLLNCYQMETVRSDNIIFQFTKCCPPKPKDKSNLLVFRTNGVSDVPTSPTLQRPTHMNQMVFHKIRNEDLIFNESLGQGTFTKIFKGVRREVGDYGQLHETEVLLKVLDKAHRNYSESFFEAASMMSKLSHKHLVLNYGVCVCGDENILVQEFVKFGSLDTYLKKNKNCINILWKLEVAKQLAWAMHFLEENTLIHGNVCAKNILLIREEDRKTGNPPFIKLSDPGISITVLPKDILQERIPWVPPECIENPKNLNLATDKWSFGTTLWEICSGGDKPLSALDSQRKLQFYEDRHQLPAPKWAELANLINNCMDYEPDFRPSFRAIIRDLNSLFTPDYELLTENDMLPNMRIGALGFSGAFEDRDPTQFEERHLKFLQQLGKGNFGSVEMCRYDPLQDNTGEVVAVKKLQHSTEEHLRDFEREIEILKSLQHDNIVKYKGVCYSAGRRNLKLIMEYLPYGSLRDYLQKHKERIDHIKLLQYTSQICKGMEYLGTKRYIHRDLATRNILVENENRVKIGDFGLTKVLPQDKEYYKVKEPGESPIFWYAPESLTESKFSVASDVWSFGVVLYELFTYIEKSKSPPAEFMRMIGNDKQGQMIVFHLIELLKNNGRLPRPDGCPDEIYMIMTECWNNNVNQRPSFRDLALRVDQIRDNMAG

`CCCS(=O)(=O)NC(=O)[C@H]1C[C@H](NC(=O)c2nn(C)c3c2CN(c2ncnc4[nH]ccc24)CC3)C1` [Compound 127] and `Cn1nc(C(=O)N[C@H]2C[C@H](CC#N)C2)c2c1CCN(c1ncnc3[nH]ccc13)C2` [Compound 128] fall in the same range of IC50: 500 to 2000 nM for the first, 500 to 2000 nM for the second.

Compared with `Cn1cc(C(=O)NCCC(F)(F)F)c2c1CCN(c1ncnc3[nH]ccc13)C2` [Compound 130], `O=C(NCCC(F)(F)F)n1ccc2c1CN(c1ncnc3[nH]ccc13)CC2` [Compound 132] is higher in IC50: 100 to 500 nM for the first, 500 to 2000 nM for the second. The first is the more potent here.

First: FC(F)(F)CCNCc1n[nH]c2c1CN(c1ncnc3[nH]ccc13)CC2 [Compound 131]
Second: O=C(NCCS(=O)(=O)N1CCC1)c1noc2c1CN(c1ncnc3[nH]ccc13)CC2 [Compound 134]
The IC50 of the first is lower: 100 to 500 nM for the first, 500 to 2000 nM for the second.

First: O=C(NCCS(=O)(=O)N1CCCC1)c1noc2c1CN(c1ncnc3[nH]ccc13)CC2 [Compound 135]
Second: O=C(NCCS(=O)(=O)N1CCCCC1)c1noc2c1CN(c1ncnc3[nH]ccc13)CC2 [Compound 136]
The IC50 of the first is lower: 100 to 500 nM for the first, > 2000 nM for the second.

These compounds were tested against T4, TYK2 (Homo sapiens, UniProt P29597) (assay: Inhibition of TYK2 kinase, LANCE Ultra TR-FRET assay). Settings: 4 nM TYK2, 2x ATP 30 μM, 15 min pre-incubation, 90 min reaction, 23° C., read-out: tyk IC50.
T4 construct: purchased Invitrogen PR8440C
Assay type: biochemical
Procedure: as §1, §2, §3, §4, §5, §6, §7

T4 sequence (P29597 whole entry): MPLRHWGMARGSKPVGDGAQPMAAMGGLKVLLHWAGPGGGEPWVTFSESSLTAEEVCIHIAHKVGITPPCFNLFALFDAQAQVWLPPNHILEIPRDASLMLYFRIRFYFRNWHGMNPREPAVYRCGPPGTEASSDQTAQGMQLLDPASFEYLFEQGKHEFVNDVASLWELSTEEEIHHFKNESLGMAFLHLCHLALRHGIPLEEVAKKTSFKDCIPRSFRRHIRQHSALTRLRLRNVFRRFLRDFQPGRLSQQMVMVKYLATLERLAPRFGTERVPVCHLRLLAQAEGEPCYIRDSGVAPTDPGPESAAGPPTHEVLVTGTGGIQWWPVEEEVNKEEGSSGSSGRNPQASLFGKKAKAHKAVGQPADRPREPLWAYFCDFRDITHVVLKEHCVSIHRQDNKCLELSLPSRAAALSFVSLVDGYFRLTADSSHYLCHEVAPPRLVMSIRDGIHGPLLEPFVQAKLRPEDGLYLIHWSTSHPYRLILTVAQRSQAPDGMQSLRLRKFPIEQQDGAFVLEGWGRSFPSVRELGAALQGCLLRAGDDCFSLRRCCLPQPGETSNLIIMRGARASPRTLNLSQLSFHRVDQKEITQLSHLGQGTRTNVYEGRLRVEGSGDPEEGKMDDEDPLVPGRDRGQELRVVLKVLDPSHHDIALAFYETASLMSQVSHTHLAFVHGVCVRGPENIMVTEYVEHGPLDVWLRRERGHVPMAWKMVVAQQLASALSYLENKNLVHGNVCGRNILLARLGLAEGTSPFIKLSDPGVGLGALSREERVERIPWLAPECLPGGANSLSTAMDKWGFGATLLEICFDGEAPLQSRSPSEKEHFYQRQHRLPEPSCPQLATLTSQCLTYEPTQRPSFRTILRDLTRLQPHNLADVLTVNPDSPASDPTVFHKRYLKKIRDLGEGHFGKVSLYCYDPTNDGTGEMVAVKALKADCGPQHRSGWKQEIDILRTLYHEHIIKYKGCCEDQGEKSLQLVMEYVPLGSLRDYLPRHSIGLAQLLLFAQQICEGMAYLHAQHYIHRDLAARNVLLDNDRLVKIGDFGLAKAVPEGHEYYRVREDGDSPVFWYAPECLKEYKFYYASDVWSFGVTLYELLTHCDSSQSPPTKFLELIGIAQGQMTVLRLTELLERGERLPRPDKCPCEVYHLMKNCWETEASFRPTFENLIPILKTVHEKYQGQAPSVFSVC

`CCCS(=O)(=O)NC(=O)[C@H]1C[C@H](NC(=O)c2nn(C)c3c2CN(c2ncnc4[nH]ccc24)CC3)C1` [Compound 127] and `Cn1nc(C(=O)N[C@H]2C[C@H](CC#N)C2)c2c1CCN(c1ncnc3[nH]ccc13)C2` [Compound 128] cannot be ordered by IC50: > 2000 nM for the first, > 2000 nM for the second.

First: Cn1cc(C(=O)NCCC(F)(F)F)c2c1CCN(c1ncnc3[nH]ccc13)C2 [Compound 130]
Second: O=C(NCCC(F)(F)F)n1ccc2c1CN(c1ncnc3[nH]ccc13)CC2 [Compound 132]
The IC50 of the first is lower: 100 to 500 nM for the first, > 2000 nM for the second. The first is the more potent here.

First: FC(F)(F)CCNCc1n[nH]c2c1CN(c1ncnc3[nH]ccc13)CC2 [Compound 131]
Second: O=C(NCCS(=O)(=O)N1CCC1)c1noc2c1CN(c1ncnc3[nH]ccc13)CC2 [Compound 134]
The IC50 of the first is lower: 100 to 500 nM for the first, > 2000 nM for the second.

`O=C(NCCS(=O)(=O)N1CCCC1)c1noc2c1CN(c1ncnc3[nH]ccc13)CC2` [Compound 135] and `O=C(NCCS(=O)(=O)N1CCCCC1)c1noc2c1CN(c1ncnc3[nH]ccc13)CC2` [Compound 136] cannot be ordered by IC50: > 2000 nM for the first, > 2000 nM for the second.
